Literature values as cited in patent US6703044B1, “Venlafaxine formulations” (priority 2002, dated 2004).
Where a name gives a salt, the structure may show the parent alone.

Details: plural daily dosing regimen

patients experiencing nausea: about forty five | patients in whom vomiting occurs: about seventeen
Structure (SMILES): COc1ccc(C(CN(C)C)C2(O)CCCCC2)cc1 (centres unmarked) [venlafaxine hydrochloride, 1-[(2-dimethylamino)-1-(4-methoxyphenyl)ethyl] cyclohexanol]
